Test results from ChEMBL document CHEMBL5365467 (J Med Chem, 2023).
Values belong to the compound of their own block, whether it stands above or below them.

Experiments:
[1] = target: T1, Androgen receptor (Homo sapiens, UniProt P10275)
T1 sequence (P10275 whole entry): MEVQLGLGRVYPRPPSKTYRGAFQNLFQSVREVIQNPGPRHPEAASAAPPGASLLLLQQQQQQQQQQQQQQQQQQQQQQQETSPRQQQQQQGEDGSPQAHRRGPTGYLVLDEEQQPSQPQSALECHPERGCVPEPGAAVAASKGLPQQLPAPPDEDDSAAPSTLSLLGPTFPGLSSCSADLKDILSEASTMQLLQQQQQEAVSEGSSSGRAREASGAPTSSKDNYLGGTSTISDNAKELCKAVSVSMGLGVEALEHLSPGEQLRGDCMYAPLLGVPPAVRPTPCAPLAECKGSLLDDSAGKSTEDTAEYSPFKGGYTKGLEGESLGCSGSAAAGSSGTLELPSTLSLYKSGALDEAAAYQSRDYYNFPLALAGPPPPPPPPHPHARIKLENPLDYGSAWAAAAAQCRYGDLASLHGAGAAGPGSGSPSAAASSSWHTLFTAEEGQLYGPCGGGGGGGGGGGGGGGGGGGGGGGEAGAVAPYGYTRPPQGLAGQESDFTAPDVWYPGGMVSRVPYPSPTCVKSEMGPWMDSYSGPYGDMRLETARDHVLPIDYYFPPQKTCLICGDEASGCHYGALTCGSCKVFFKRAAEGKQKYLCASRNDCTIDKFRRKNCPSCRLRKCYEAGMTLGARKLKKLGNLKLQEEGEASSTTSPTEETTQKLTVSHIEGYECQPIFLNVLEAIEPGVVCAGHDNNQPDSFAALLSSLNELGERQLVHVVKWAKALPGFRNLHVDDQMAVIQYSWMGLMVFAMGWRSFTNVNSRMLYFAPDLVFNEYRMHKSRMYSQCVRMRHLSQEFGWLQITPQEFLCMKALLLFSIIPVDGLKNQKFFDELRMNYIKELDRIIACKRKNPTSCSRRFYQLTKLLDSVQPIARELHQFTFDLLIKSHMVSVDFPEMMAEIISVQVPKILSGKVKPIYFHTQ

[2] = target: Protein cereblon (Homo sapiens, UniProt Q96SW2); test: Binding affinity to CRBN (unknown origin) assessed as inhibition constant
Protein cereblon, sequence (Q96SW2 whole entry): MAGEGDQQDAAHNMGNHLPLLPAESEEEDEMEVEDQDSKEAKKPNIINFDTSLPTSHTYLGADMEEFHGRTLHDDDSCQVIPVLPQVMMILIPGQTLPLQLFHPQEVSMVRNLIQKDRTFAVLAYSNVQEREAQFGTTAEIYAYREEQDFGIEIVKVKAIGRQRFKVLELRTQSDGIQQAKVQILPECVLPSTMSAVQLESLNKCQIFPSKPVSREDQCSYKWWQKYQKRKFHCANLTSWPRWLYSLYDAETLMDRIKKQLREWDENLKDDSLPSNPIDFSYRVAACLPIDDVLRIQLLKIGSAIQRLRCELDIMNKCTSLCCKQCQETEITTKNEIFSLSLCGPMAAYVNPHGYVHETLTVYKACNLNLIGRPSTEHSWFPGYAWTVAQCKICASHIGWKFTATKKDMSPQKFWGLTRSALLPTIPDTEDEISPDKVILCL

[3] = Clearance in Sprague-Dawley rat at 1 mg/kg, iv measured upto 24 hrs by LC-MS/MS analysis; type: ADME, organism-based; settings: in vivo
[4] = AUC (0 to t) in Sprague-Dawley rat at 1 mg/kg, iv measured upto 24 hrs by LC-MS/MS analysis; type: ADME, organism-based; design: dose 1 mg/kg, time < 24 hrs, route iv; settings: in vivo
[5] = Cmax in Sprague-Dawley rat at 3 mg/kg, po measured upto 24 hrs by LC-MS/MS analysis; type: ADME, organism-based; design: dose 3 mg/kg, time < 24 hrs, route po; settings: in vivo
[6] = Half life in Sprague-Dawley rat at 1 mg/kg, iv measured upto 24 hrs by LC-MS/MS analysis; type: ADME, organism-based; settings: in vivo
[7] = Half life in Sprague-Dawley rat at 5 mg/kg, po measured upto 24 hrs by LC-MS/MS analysis; settings: in vivo
[8] = AUC (0 to t) in Sprague-Dawley rat at 3 mg/kg, po measured upto 24 hrs by LC-MS/MS analysis; type: ADME, organism-based; design: dose 3 mg/kg, time < 24 hrs, route po; settings: in vivo
[9] = tested on: VCaP; test: Growth inhibition in human VCaP cells
[10] = Volume of distribution at steady state in Sprague-Dawley rat at 1 mg/kg, iv measured upto 24 hrs by LC-MS/MS analysis; type: ADME, organism-based; settings: in vivo, read-out: Vdss
[11] = target: Protein cereblon/Androgen receptor (Homo sapiens, UniProt P10275+Q96SW2); test: PROTAC activity at AR/CRBN in AR-positive human VCaP cells assessed as induction of androgen receptor degradation measured at 24 hrs; type: cell-based; settings: read-out: DC50
Protein cereblon/Androgen receptor (Homo sapiens, UniProt P10275+Q96SW2), sequence (Q96SW2 whole entry, one chain of several): as the sequence (Q96SW2 whole entry) above

[12] = target: Protein cereblon/Androgen receptor (Homo sapiens, UniProt P10275+Q96SW2, T878A); test: PROTAC activity at AR T878A mutant/CRBN in human LNCaP cells assessed as induction of androgen receptor degradation measured at 24 hrs by Western blot analysis; type: cell-based
[13] = Oral bioavailability in Sprague-Dawley rat at 3 mg/kg measured upto 24 hrs by LC-MS/MS analysis; type: ADME, organism-based; settings: in vivo
[14] = in vivo; settings: Sprague-Dawley, rat, po, 5 mg/kg
[15] = Volume of distribution at steady state in Sprague-Dawley rat at 2 mg/kg, iv measured upto 24 hrs by LC-MS/MS analysis; settings: in vivo
[16] = in vivo; settings: Sprague-Dawley, rat, po, 5 mg/kg; remark: listed apart in the source
[17] = Half life in Sprague-Dawley rat at 2 mg/kg, iv measured upto 24 hrs by LC-MS/MS analysis; settings: in vivo
[18] = in vivo; settings: Sprague-Dawley, rat, po, 5 mg/kg; remark: listed apart in the source
[19] = in vivo; settings: Sprague-Dawley, rat, iv, 2 mg/kg
[20] = Clearance in Sprague-Dawley rat at 2 mg/kg, iv measured upto 24 hrs by LC-MS/MS analysis; settings: in vivo

SMILES: C[C@H]1CC2(CCN(c3ccc(C(=O)N4CCC(CN5Cc6cc7c(cc6C5)C(=O)N(C5CCC(=O)NC5=O)C7=O)CC4)nn3)CC2)CN1c1ccc(C#N)c(Cl)c1 (stereo partly drawn)
- clearance [3]: 32.3 mL/min/kg
- AUC(0-t) at 24 h [4]: 1010 ng·h/mL
- Cmax [5]: 247 ng/mL
- half-life [6]: 2 h
- half-life at 24 h [7]: 1.4 h
- AUC(0-t) at 24 h [8]: 1100 ng·h/mL
- IC50 [9]: 20 nM
- Vd [10]: 2.2 L/kg
- DC50 [11]: 2.7 nM
- DC50 [12]: 0.5 nM
- bioavailability [13]: 36%

SMILES: N#Cc1ccc(N2CCC3(CCN(c4ccc(C(=O)N5CCC(CN6CCc7cc8c(cc7C6)C(=O)N(C6CCC(=O)NC6=O)C8=O)CC5)cc4)CC3)C2)cc1Cl (stereo not drawn)
- DC50 [11]: 25 nM

SMILES: CN1CCN(C(=O)c2ccc(N3CCC4(CC3)CCN(c3ccc(C#N)c(Cl)c3)C4)cc2)CC1
- IC50 [1]: 80 nM

SMILES: COC1(CN2Cc3cc4c(cc3C2)C(=O)N(C2CCC(=O)NC2=O)C4=O)CCN(C(=O)c2ccc(N3CCC4(CC3)C[C@H](C)N(c3ccc(C#N)c(Cl)c3)C4)cc2)CC1 (stereo partly drawn)
- bioavailability at 24 h [14]: 22%
- Vd at 24 h [15]: 4.1 L/kg
- half-life at 24 h [7]: 5.6 h
- IC50 [9]: 4.9 nM
- Cmax at 24 h [16]: 179 ng/mL
- DC50 [11]: 0.3 nM
- half-life at 24 h [17]: 4.9 h
- AUC(0-t) at 24 h [18]: 1320 ng·h/mL
- DC50 [12]: 1 nM
- AUC(0-t) at 24 h [19]: 2390 ng·h/mL
- clearance at 24 h [20]: 13.8 mL/min/kg

SMILES: C[C@H]1CC2(CCN(c3ccc(C(=O)N4CCC(N5Cc6cc7c(cc6C5)C(=O)N(C5CCC(=O)NC5=O)C7=O)CC4)cc3)CC2)CN1c1ccc(C#N)c(Cl)c1 (stereo partly drawn)
- bioavailability at 24 h [14]: 81%
- Vd at 24 h [15]: 6.1 L/kg
- half-life at 24 h [7]: 5.5 h
- IC50 [9]: 16.5 nM
- Cmax at 24 h [16]: 410 ng/mL
- DC50 [11]: 0.4 nM
- half-life at 24 h [17]: 5.5 h
- AUC(0-t) at 24 h [18]: 4280 ng·h/mL
- DC50 [12]: 0.8 nM
- AUC(0-t) at 24 h [19]: 2100 ng·h/mL
- clearance at 24 h [20]: 15.3 mL/min/kg

SMILES: CN1CCN(c2ccc(C(=O)N3CCC4(CC3)CCN(c3ccc(C#N)c(Cl)c3)C4)cc2)CC1
- IC50 [1]: 3600 nM

SMILES: C[C@H]1CC2(CCN(c3ccc(C(=O)N4CCC(CN5Cc6cc7c(cc6C5)C(=O)N(C5CCC(=O)NC5=O)C7=O)CC4)nc3)CC2)CN1c1ccc(C#N)c(Cl)c1 (stereo partly drawn)
- IC50 [9]: 46 nM
- DC50 [11]: 15.6 nM
- DC50 [12]: 4.6 nM

SMILES: N#Cc1ccc(N2CCC3(CCN(c4ccc(C(=O)N5CCC(N6Cc7cc8c(cc7C6)C(=O)N(C6CCC(=O)NC6=O)C8=O)CC5)cc4)CC3)C2)cc1Cl (stereo not drawn)
- DC50 [11]: 9.7 nM

Next, values leading:

- IC50 [1]: 6900 nM
SMILES: CN1CCN(c2ccc(C(=O)N3CCC4(CCN(c5ccc(C#N)c(Cl)c5)C4)C3)cc2)CC1 (stereo not drawn)

- Ki [2]: 500 nM
SMILES: O=C1CCC(N2C(=O)c3ccc(N4CCC4)cc3C2=O)C(=O)N1 (stereo not drawn)

- DC50 [11]: 3000 nM
SMILES: N#Cc1ccc(N2CCC3(CCN(c4ccc(C(=O)N5CCC(CCN6CCc7cc8c(cc7CC6)C(=O)N(C6CCC(=O)NC6=O)C8=O)CC5)cc4)CC3)C2)cc1Cl (stereo not drawn)

- Ki [2]: 7300 nM
SMILES: CN1CCc2cc3c(cc2CC1)C(=O)N(C1CCC(=O)NC1=O)C3=O (stereo not drawn)

- Ki [2]: 4900 nM
SMILES: CN1CCN(c2cc3c(cc2F)C(=O)N(C2CCC(=O)NC2=O)C3=O)CC1 (stereo not drawn)

- IC50 [1]: 5000 nM
SMILES: CN1CCN(c2ccc(C(=O)N3CCC4(CCN(c5ccc(C#N)c(Cl)c5)CC4)C3)cc2)CC1

- IC50 [1]: 5400 nM
SMILES: CN1CCN(C(=O)c2ccc(N3CCC4(CCN(c5ccc(C#N)c(Cl)c5)CC4)C3)cc2)CC1

- Ki [2]: 6000 nM
SMILES: CN1CCc2cc3c(cc2C1)C(=O)N(C1CCC(=O)NC1=O)C3=O (stereo not drawn)
